The kinase profiling compilation of Christmann-Franck et al. (2016)

How the values were obtained:
EPHB4 (human) = EPHB4 (human) (UniProt P54760); assay: radiometric filter-binding kinase assay
IGF1R (human) = IGF1R (human) (UniProt P08069); assay: radiometric filter-binding kinase assay
MST4 (human) = MST4 (human) (UniProt Q9P289); assay: radiometric filter-binding kinase assay
NUAK1 (human) [1] = target: NUAK1 (human) (UniProt O60285); assay: radiometric filter-binding kinase assay
PIM3 (human) = PIM3 (human) (UniProt Q86V86); assay: radiometric filter-binding kinase assay
[2] = target: PRKAA1 PRKAB2 PRKAG1 (human) (UniProt O43741+Q13131+P54619); assay: radiometric filter-binding kinase assay
SYK (human) = SYK (human) (UniProt P43405); assay: radiometric filter-binding kinase assay
TLK1 (human) = TLK1 (human) (UniProt Q9UKI8); assay: radiometric filter-binding kinase assay
Chain of TLK1 (human) (Q9UKI8 whole entry, looked up): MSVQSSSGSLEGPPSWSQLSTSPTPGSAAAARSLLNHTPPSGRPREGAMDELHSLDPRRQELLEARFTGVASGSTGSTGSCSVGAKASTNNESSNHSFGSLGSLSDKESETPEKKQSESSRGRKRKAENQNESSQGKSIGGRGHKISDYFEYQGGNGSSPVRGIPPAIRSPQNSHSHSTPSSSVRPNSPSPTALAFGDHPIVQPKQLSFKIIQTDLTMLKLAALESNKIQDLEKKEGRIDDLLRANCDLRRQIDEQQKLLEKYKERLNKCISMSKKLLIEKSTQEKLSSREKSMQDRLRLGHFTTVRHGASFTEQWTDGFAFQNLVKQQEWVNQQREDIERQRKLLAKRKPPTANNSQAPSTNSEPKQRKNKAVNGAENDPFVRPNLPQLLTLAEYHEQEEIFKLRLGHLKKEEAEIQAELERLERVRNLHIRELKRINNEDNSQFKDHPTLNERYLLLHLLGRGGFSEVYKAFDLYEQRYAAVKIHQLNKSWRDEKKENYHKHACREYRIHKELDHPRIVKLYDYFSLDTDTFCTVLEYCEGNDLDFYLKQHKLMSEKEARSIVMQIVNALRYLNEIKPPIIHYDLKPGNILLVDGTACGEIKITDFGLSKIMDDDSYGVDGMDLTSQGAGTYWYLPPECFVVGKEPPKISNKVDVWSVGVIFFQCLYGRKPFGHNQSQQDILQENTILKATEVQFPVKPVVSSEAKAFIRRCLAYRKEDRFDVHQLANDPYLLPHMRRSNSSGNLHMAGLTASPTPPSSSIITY

ULK2 (human) = ULK2 (human) (UniProt Q8IYT8); assay: radiometric filter-binding kinase assay
Chain of ULK2 (human) (Q8IYT8 whole entry, looked up): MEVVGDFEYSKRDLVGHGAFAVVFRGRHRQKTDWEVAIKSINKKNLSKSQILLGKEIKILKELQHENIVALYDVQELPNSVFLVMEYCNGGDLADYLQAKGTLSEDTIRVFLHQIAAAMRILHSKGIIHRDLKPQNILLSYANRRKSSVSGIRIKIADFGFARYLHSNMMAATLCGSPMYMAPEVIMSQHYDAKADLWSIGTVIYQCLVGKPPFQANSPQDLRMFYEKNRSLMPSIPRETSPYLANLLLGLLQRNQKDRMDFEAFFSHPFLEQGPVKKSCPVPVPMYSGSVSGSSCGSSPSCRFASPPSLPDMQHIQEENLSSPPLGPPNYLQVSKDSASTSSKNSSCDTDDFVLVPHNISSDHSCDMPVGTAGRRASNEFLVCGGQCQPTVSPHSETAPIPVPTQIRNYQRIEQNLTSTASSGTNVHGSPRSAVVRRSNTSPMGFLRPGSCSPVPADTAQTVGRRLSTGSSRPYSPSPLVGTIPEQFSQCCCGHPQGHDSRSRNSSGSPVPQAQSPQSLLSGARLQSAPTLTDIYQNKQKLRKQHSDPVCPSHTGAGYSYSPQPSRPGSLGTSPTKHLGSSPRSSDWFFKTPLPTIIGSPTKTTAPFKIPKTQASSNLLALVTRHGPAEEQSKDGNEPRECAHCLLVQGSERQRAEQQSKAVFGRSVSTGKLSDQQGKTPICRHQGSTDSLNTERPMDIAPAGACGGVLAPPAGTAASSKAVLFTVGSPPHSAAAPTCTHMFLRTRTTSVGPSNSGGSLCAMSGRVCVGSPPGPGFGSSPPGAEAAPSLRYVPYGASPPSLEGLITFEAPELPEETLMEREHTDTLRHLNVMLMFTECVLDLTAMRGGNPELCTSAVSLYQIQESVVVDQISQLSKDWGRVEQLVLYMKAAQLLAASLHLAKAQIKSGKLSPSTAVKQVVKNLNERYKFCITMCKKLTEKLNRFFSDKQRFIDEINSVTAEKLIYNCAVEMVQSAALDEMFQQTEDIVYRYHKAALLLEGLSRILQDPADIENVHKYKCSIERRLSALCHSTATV

ADCK3 (human) = ADCK3 (human) (UniProt Q8NI60); assay: KINOMEscan competition binding; details: compound 1.0 µM
ADCK4 (human) = ADCK4 (human) (UniProt Q96D53); assay: KINOMEscan competition binding; details: compound 1.0 µM
CAMK1D (human) = CAMK1D (human) (UniProt Q8IU85); assay: KINOMEscan competition binding; details: compound 1.0 µM
CDK2 (human) = CDK2 (human) (UniProt P24941); assay: KINOMEscan competition binding; details: compound 1.0 µM
CDK7 (human) = CDK7 (human) (UniProt P50613); assay: KINOMEscan competition binding; details: compound 1.0 µM
CHEK2 (human) = CHEK2 (human) (UniProt O96017); assay: KINOMEscan competition binding; details: compound 1.0 µM
CLK1 (human) = CLK1 (human) (UniProt P49759); assay: KINOMEscan competition binding; details: compound 1.0 µM
[3] = system: EGFR (human), P00533 [752-759 del]; assay: KINOMEscan competition binding; details: compound 1.0 µM
[4] = system: EGFR (human), P00533 [L861Q]; assay: KINOMEscan competition binding; details: compound 1.0 µM
EPHA1 (human) = EPHA1 (human) (UniProt P21709); assay: KINOMEscan competition binding; details: compound 1.0 µM
EPHA7 (human) = EPHA7 (human) (UniProt Q15375); assay: KINOMEscan competition binding; details: compound 1.0 µM
FGFR4 (human) = FGFR4 (human) (UniProt P22455); assay: KINOMEscan competition binding; details: compound 1.0 µM
[5] = target: JAK1 JH1 catalytic (human) (UniProt P23458); assay: KINOMEscan competition binding; details: compound 1.0 µM
[6] = system: KIT (human), P10721 [V559D]; assay: KINOMEscan competition binding; details: compound 1.0 µM
LATS1 (human) = LATS1 (human) (UniProt O95835); assay: KINOMEscan competition binding; details: compound 1.0 µM
MAK (human) = MAK (human) (UniProt P20794); assay: KINOMEscan competition binding; details: compound 1.0 µM
MAP3K4 (human) = MAP3K4 (human) (UniProt Q9Y6R4); assay: KINOMEscan competition binding; details: compound 1.0 µM
MAPK13 (human) = MAPK13 (human) (UniProt O15264); assay: KINOMEscan competition binding; details: compound 1.0 µM
MAPK8 (human) = MAPK8 (human) (UniProt P45983); assay: KINOMEscan competition binding; details: compound 1.0 µM
NUAK1 (human) [7] = target: NUAK1 (human) (UniProt O60285); assay: KINOMEscan competition binding; details: compound 1.0 µM
PHKG2 (human) = PHKG2 (human) (UniProt P15735); assay: KINOMEscan competition binding; details: compound 1.0 µM
PIK3CB (human) = PIK3CB (human) (UniProt P42338); assay: KINOMEscan competition binding; details: compound 1.0 µM
PRKAA2 (human) = PRKAA2 (human) (UniProt P54646); assay: KINOMEscan competition binding; details: compound 1.0 µM
PRKD2 (human) = PRKD2 (human) (UniProt Q9BZL6); assay: KINOMEscan competition binding; details: compound 1.0 µM
Chain of PRKD2 (human) (Q9BZL6 whole entry, looked up): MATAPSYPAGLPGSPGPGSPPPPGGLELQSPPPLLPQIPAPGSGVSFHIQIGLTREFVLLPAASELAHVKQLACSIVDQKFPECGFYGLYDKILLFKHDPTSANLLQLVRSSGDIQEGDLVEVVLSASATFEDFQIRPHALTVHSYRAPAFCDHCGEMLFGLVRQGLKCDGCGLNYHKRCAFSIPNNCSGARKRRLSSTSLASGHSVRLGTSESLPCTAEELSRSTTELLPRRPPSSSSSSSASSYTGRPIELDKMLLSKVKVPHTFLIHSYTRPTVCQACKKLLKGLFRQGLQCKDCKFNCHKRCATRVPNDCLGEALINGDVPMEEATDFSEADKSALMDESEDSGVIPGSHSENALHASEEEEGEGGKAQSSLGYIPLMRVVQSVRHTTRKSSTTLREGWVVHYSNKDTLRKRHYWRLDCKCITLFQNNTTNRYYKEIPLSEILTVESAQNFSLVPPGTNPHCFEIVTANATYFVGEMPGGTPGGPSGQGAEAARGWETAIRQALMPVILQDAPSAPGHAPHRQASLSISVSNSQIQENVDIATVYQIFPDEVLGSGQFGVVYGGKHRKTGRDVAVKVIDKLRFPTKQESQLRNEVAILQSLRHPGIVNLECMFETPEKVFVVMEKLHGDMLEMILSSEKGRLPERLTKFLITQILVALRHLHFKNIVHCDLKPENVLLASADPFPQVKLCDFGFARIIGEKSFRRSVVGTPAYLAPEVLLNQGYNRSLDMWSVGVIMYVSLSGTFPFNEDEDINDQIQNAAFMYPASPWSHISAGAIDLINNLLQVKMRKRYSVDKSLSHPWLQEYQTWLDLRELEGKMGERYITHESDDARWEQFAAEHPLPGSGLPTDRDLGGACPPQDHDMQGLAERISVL

PRKD3 (human) = PRKD3 (human) (UniProt O94806); assay: KINOMEscan competition binding; details: compound 1.0 µM
RPS6KA4 KD2 (human) = RPS6KA4 KD2 (human) (UniProt O75676); assay: KINOMEscan competition binding; details: compound 1.0 µM
RPS6KA6 KD2 (human) = RPS6KA6 KD2 (human) (UniProt Q9UK32); assay: KINOMEscan competition binding; details: compound 1.0 µM
STK32A (human) = STK32A (human) (UniProt Q8WU08); assay: KINOMEscan competition binding; details: compound 1.0 µM

Chain of NUAK1 (human) (O60285 whole entry, looked up): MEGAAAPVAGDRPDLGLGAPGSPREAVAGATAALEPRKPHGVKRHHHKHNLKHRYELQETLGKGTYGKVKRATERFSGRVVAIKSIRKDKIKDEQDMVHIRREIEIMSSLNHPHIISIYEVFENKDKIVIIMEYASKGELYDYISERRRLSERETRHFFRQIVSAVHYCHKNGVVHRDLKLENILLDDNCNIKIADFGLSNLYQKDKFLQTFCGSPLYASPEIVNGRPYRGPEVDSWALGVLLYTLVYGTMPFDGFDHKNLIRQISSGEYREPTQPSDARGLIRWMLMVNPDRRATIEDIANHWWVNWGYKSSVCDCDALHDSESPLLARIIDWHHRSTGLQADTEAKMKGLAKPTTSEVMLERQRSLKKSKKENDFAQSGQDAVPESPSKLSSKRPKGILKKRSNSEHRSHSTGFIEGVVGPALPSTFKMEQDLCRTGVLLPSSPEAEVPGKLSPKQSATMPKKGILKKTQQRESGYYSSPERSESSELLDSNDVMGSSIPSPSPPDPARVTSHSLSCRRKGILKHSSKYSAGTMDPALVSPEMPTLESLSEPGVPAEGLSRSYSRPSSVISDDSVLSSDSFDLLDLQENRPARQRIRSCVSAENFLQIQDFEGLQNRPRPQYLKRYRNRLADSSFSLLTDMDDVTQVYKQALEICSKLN
Chain of MST4 (human) (Q9P289 whole entry, looked up): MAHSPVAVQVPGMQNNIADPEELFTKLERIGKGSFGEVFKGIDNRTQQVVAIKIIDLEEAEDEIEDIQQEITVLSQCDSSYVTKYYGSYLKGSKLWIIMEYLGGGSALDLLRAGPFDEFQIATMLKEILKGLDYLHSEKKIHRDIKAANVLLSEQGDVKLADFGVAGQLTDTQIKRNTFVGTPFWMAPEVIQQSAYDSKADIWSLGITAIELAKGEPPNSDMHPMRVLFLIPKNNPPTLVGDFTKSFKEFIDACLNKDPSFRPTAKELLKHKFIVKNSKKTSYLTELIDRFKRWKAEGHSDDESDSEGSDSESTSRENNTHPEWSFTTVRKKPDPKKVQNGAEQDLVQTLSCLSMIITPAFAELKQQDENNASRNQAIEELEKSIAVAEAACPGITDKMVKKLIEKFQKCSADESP
Chain of EPHB4 (human) (P54760 whole entry, looked up): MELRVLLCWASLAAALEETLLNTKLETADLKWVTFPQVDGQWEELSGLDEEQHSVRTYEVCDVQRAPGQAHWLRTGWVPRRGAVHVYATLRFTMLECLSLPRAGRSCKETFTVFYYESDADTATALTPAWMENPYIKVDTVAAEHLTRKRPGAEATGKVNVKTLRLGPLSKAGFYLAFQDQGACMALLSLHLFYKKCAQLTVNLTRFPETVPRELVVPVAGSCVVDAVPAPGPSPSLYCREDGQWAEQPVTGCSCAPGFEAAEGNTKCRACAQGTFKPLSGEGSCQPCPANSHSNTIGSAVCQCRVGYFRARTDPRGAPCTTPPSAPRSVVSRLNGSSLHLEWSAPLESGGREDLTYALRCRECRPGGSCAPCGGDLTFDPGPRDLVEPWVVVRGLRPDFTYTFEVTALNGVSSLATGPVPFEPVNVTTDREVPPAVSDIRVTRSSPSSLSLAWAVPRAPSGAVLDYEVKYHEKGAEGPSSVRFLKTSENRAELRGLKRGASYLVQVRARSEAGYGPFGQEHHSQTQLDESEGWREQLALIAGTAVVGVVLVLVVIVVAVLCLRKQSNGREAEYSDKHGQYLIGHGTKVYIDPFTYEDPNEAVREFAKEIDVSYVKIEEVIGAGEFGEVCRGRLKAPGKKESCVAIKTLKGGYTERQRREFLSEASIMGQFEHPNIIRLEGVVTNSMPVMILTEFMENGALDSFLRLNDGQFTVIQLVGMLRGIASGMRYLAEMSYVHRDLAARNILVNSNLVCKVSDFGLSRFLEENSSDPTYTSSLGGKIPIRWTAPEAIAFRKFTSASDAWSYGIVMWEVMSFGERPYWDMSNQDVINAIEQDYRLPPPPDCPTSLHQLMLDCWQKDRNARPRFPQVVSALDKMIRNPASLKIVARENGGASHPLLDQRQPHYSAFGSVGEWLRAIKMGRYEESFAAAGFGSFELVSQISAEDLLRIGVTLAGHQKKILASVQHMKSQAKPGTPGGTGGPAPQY

Work on `CNc1nc(Nc2ccc(C(=O)N3CCOCC3)cc2OC)ncc1Cl` yielded a residual activity (EPHB4 (human); compound 1.0 µM) of 94%, a residual activity (EPHB4 (human); compound 10.0 µM) of 113% and a residual activity (IGF1R (human); compound 1.0 µM) of 100%. It also gave a residual activity (IGF1R (human); compound 10.0 µM) of 51%, a residual activity (MST4 (human); compound 1.0 µM) of 101% and a residual activity (MST4 (human); compound 10.0 µM) of 106%. The residual activity (NUAK1 (human) [1]; compound 1.0 µM) was 43%, the residual activity (NUAK1 (human) [1]; compound 10.0 µM) was 20% and the residual activity (PIM3 (human); compound 1.0 µM) was 77%. The residual activity (PIM3 (human); compound 10.0 µM) was 72%, the residual activity ([2]; compound 1.0 µM) was 91% and the residual activity ([2]; compound 10.0 µM) was 71%. It also gave a residual activity (SYK (human); compound 1.0 µM) of 68%, a residual activity (SYK (human); compound 10.0 µM) of 85% and a residual activity (TLK1 (human); compound 1.0 µM) of 61%. The residual activity (TLK1 (human); compound 10.0 µM) was 100%, the residual activity (ULK2 (human); compound 1.0 µM) was 97% and the residual activity (ULK2 (human); compound 10.0 µM) was 84%. For the same compound, the kinase still bound, per cent of control (ADCK3 (human)) was 100%, the kinase still bound, per cent of control (ADCK4 (human)) was 100% and the kinase still bound, per cent of control (CAMK1D (human)) was 100%. It also gave a residual activity (CDK2 (human)) of 95%, a residual activity (CDK7 (human)) of 57% and a kinase still bound, per cent of control (CHEK2 (human)) of 26%. The kinase still bound, per cent of control (CLK1 (human)) was 100%, the kinase still bound, per cent of control [3] was 100% and the kinase still bound, per cent of control [4] was 100%. It also gave a kinase still bound, per cent of control (EPHA1 (human)) of 100%, a kinase still bound, per cent of control (EPHA7 (human)) of 100% and a kinase still bound, per cent of control (FGFR4 (human)) of 52%. For the same compound, the kinase still bound, per cent of control [5] was 82%, the kinase still bound, per cent of control [6] was 18% and the kinase still bound, per cent of control (LATS1 (human)) was 100%. For the same compound, the kinase still bound, per cent of control (MAK (human)) was 100%, the kinase still bound, per cent of control (MAP3K4 (human)) was 100% and the kinase still bound, per cent of control (MAPK13 (human)) was 94%. It also gave a kinase still bound, per cent of control (MAPK8 (human)) of 44%, a kinase still bound, per cent of control (NUAK1 (human) [7]) of 82% and a kinase still bound, per cent of control (PHKG2 (human)) of 58%. The kinase still bound, per cent of control (PIK3CB (human)) was 100%, the kinase still bound, per cent of control (PRKAA2 (human)) was 93% and the kinase still bound, per cent of control (PRKD2 (human)) was 84%. The kinase still bound, per cent of control (PRKD3 (human)) was 98%, the kinase still bound, per cent of control (RPS6KA4 KD2 (human)) was 23% and the kinase still bound, per cent of control (RPS6KA6 KD2 (human)) was 89%. The kinase still bound, per cent of control (STK32A (human)) was 100%.
